From ChEMBL document CHEMBL4130433, “Acridone-pyrimidine hybrids- design, synthesis, cytotoxicity studies in resistant and sensitive cancer cells and molecular docking studies” (Eur J Med Chem, 2017)

Experiments:
MCF7 = experiment: Antiproliferative activity against human MCF7 cells after 72 hrs by MTT assay; assay type: functional, cell-based; conditions: MCF7, 72 h
Rattus norvegicus [1] = experiment: Toxicity in overnight fasted albino Wistar rat assessed as body weight at 2000 mg/kg, po administered as single dose followed by fasting for 3 hrs measured on day 2 post dose (reference value: 165 +/- 12 g); assay type: organism-based; conditions: in vivo
Rattus norvegicus [2] = experiment: Toxicity in overnight fasted albino Wistar rat assessed as body weight at 2000 mg/kg, po administered as single dose followed by fasting for 3 hrs measured on day 10 post dose (reference value: 182 +/- 15 g); assay type: organism-based; conditions: in vivo
Rattus norvegicus [3] = experiment: Toxicity in overnight fasted albino Wistar rat assessed as body weight at 300 mg/kg, po administered as single dose followed by fasting for 3 hrs measured on day 9 post dose (reference value: 180 +/- 12 g); assay type: organism-based; conditions: in vivo
[4] = molecular target: RAC-alpha serine/threonine-protein kinase (Homo sapiens, UniProt P31749); experiment: Inhibition of PH domain lacking AKT1 (unknown origin) using Tamara-labeled GRPRTSSFAEG peptide as substrate after 90 mins by fluorescence polarization IMAP assay
SW1573 [5] = experiment: Antiproliferative activity against resistant human SW1573 2R 120 cells harboring MRP1 after 72 hrs by MTT assay; assay type: functional, cell-based; conditions: SW1573, 72 h
Rattus norvegicus [6] = experiment: Toxicity in overnight fasted albino Wistar rat assessed as body weight at 2000 mg/kg, po administered as single dose followed by fasting for 3 hrs measured on day 7 post dose (reference value: 175 +/- 10 g); assay type: organism-based; conditions: in vivo
HeLa = experiment: Antiproliferative activity against human HeLa cells after 72 hrs by MTT assay; assay type: functional, cell-based
SW1573 [7] = experiment: Antiproliferative activity against human SW1573 cells after 72 hrs by MTT assay; assay type: functional, cell-based; conditions: SW1573, 72 h
Rattus norvegicus [8] = experiment: Toxicity in overnight fasted albino Wistar rat assessed as body weight at 2000 mg/kg, po administered as single dose followed by fasting for 3 hrs measured on day 14 post dose (reference value: 191 +/- 18 g); assay type: organism-based; conditions: in vivo
Rattus norvegicus [9] = experiment: Toxicity in overnight fasted albino Wistar rat assessed as body weight at 300 mg/kg, po administered as single dose followed by fasting for 3 hrs measured on day 10 post dose (reference value: 182 +/- 15 g); assay type: organism-based; conditions: in vivo
Rattus norvegicus [10] = experiment: Toxicity in overnight fasted albino Wistar rat assessed as body weight at 2000 mg/kg, po administered as single dose followed by fasting for 3 hrs measured on day 12 post dose (reference value: 186 +/- 13 g); assay type: organism-based; conditions: in vivo
[11] = Antiproliferative activity against human MCF7/DX cells after 72 hrs by MTT assay; assay type: functional, cell-based
MDA-MB-231 = experiment: Antiproliferative activity against human MDA-MB-231 cells after 72 hrs by MTT assay; assay type: functional, cell-based; conditions: MDA-MB-231, 72 h
Rattus norvegicus [12] = experiment: Toxicity in overnight fasted albino Wistar rat assessed as body weight at 300 mg/kg, po administered as single dose followed by fasting for 3 hrs measured on day 2 post dose (reference value: 165 +/- 12 g); assay type: organism-based; conditions: in vivo
Rattus norvegicus [13] = experiment: Toxicity in overnight fasted albino Wistar rat assessed as body weight at 5000 mg/kg, po administered as single dose followed by fasting for 3 hrs measured on day 5 post dose (reference value: 172 +/- 14 g); assay type: organism-based; conditions: in vivo
2008 [14] = experiment: Antiproliferative activity against resistant human 2008 cells clone 6 harboring MRP1 after 72 hrs by MTT assay; assay type: functional, cell-based; conditions: Homo sapiens, 2008, 72 h
Rattus norvegicus [15] = experiment: Toxicity in overnight fasted albino Wistar rat assessed as body weight at 5000 mg/kg, po administered as single dose followed by fasting for 3 hrs measured on day 2 post dose (reference value: 165 +/- 12 g); assay type: organism-based; conditions: in vivo
[16] = Cytotoxicity against African green monkey Vero cells after 72 hrs by MTT assay; assay type: cell-based; conditions: chlorocebus sabaeus
Rattus norvegicus [17] = experiment: Toxicity in overnight fasted albino Wistar rat assessed as body weight at 5000 mg/kg, po administered as single dose followed by fasting for 3 hrs measured on day 8 post dose (reference value: 177 +/- 8 g); assay type: organism-based; conditions: in vivo
Rattus norvegicus [18] = experiment: Toxicity in overnight fasted albino Wistar rat assessed as body weight at 2000 mg/kg, po administered as single dose followed by fasting for 3 hrs measured on day 3 post dose (reference value: 166 +/- 10 g); assay type: organism-based; conditions: in vivo
Rattus norvegicus [19] = experiment: Toxicity in overnight fasted albino Wistar rat assessed as body weight at 5000 mg/kg, po administered as single dose followed by fasting for 3 hrs measured on day 4 post dose (reference value: 169 +/- 5 g); assay type: organism-based; conditions: in vivo
Rattus norvegicus [20] = experiment: Toxicity in overnight fasted albino Wistar rat assessed as body weight at 5000 mg/kg, po administered as single dose followed by fasting for 3 hrs measured on day 7 post dose (reference value: 175 +/- 10 g); assay type: organism-based; conditions: in vivo
Rattus norvegicus [21] = experiment: Toxicity in overnight fasted albino Wistar rat assessed as body weight at 300 mg/kg, po administered as single dose followed by fasting for 3 hrs measured on day 13 post dose (reference value: 188 +/- 16 g); assay type: organism-based; conditions: in vivo
Rattus norvegicus [22] = experiment: Toxicity in overnight fasted albino Wistar rat assessed as body weight at 2000 mg/kg, po administered as single dose followed by fasting for 3 hrs measured on day 13 post dose (reference value: 188 +/- 16 g); assay type: organism-based; conditions: in vivo
A549 = experiment: cells; conditions: Homo sapiens, A549, 72 h
Description: Antiproliferative activity against human A549 cells after 72 hrs by MTT assay

[23] = Antiproliferative activity against human MCF7/MX cells after 72 hrs by MTT assay; assay type: functional, cell-based
Rattus norvegicus [24] = experiment: Toxicity in overnight fasted albino Wistar rat assessed as body weight at 300 mg/kg, po administered as single dose followed by fasting for 3 hrs measured on day 14 post dose (reference value: 191 +/- 18 g); assay type: organism-based; conditions: in vivo
Rattus norvegicus [25] = experiment: Toxicity in overnight fasted albino Wistar rat assessed as body weight at 300 mg/kg, po administered as single dose followed by fasting for 3 hrs measured on day 11 post dose (reference value: 185 +/- 8 g); assay type: organism-based; conditions: in vivo
Rattus norvegicus [26] = experiment: Toxicity in overnight fasted albino Wistar rat assessed as body weight at 2000 mg/kg, po administered as single dose followed by fasting for 3 hrs measured on day 6 post dose (reference value: 173 +/- 12 g); assay type: organism-based; conditions: in vivo
Rattus norvegicus [27] = experiment: Toxicity in overnight fasted albino Wistar rat assessed as body weight at 300 mg/kg, po administered as single dose followed by fasting for 3 hrs measured on day 7 post dose (reference value: 175 +/- 10 g); assay type: organism-based; conditions: in vivo
Rattus norvegicus [28] = experiment: Toxicity in overnight fasted albino Wistar rat assessed as body weight at 5000 mg/kg, po administered as single dose followed by fasting for 3 hrs measured on day 14 post dose (reference value: 191 +/- 18 g); assay type: organism-based; conditions: in vivo
Rattus norvegicus [29] = experiment: Toxicity in overnight fasted albino Wistar rat assessed as body weight at 2000 mg/kg, po administered as single dose followed by fasting for 3 hrs measured on day 8 post dose (reference value: 177 +/- 8 g); assay type: organism-based; conditions: in vivo
Rattus norvegicus [30] = experiment: Toxicity in overnight fasted albino Wistar rat assessed as body weight at 2000 mg/kg, po administered as single dose followed by fasting for 3 hrs measured on day 5 post dose (reference value: 172 +/- 14 g); assay type: organism-based; conditions: in vivo
2008 [31] = experiment: Antiproliferative activity against resistant human 2008 cells clone 4 harboring MRP1 after 72 hrs by MTT assay; assay type: functional, cell-based; conditions: Homo sapiens, 2008, 72 h

Chain of RAC-alpha serine/threonine-protein kinase (P31749 whole entry, the tested form may be a part): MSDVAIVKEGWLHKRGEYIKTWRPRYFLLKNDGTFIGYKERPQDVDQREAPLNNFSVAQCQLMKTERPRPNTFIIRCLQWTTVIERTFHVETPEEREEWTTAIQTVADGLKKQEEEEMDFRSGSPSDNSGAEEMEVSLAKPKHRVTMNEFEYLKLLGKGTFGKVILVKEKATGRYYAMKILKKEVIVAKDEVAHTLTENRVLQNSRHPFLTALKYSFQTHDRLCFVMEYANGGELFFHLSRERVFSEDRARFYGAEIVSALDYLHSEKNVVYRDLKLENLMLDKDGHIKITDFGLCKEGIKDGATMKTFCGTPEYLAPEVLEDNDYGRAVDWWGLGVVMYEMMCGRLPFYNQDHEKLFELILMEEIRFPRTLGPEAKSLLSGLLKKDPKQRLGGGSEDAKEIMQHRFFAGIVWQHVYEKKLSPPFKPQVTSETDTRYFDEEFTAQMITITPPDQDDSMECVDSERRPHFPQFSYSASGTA

For `COC(=O)c1c(C)nc(NNC(=O)c2cccc3c(=O)c4ccccc4[nH]c23)nc1-c1ccc(OC)c(OC)c1`, the IC50 (MCF7) was 65 µM, the Activity (Rattus norvegicus [1]) was 184 g and the Activity (Rattus norvegicus [2]) was 202 g. For the same molecule, the Activity (Rattus norvegicus [3]) was 193 g, the IC50 [4] was 0.311 µM and the IC50 (SW1573 [5]) was > 100 µM. The Activity (Rattus norvegicus [6]) was 195 g, the IC50 (HeLa) was 63.5 µM and the IC50 (SW1573 [7]) was 4 µM. The Activity (Rattus norvegicus [8]) was 213 g, the Activity (Rattus norvegicus [9]) was 193 g and the Activity (Rattus norvegicus [10]) was 206 g. It also gave an IC50 [11] of 78 µM, an IC50 (MDA-MB-231) of 62.9 µM and an Activity (Rattus norvegicus [12]) of 183 g. The Activity (Rattus norvegicus [13]) was 198 g, the IC50 2008 [14] was 65 µM and the Activity (Rattus norvegicus [15]) was 189 g. The CC50 at 72 h [16] was 85.7 µM, the Activity (Rattus norvegicus [17]) was 208 g and the Activity (Rattus norvegicus [18]) was 186 g. It also gave an Activity (Rattus norvegicus [19]) of 196 g, an Activity (Rattus norvegicus [20]) of 206 g and an Activity (Rattus norvegicus [21]) of 204 g. The Activity (Rattus norvegicus [22]) was 209 g, the IC50 (A549) was 29.1 µM and the IC50 [23] was 78 µM. It also gave an Activity (Rattus norvegicus [24]) of 208 g, an Activity (Rattus norvegicus [25]) of 196 g and an Activity (Rattus norvegicus [26]) of 194 g. The Activity (Rattus norvegicus [27]) was 191 g, the Activity (Rattus norvegicus [28]) was 228 g and the Activity (Rattus norvegicus [29]) was 197 g. It also gave an Activity (Rattus norvegicus [30]) of 190 g and an IC50 2008 [31] of 42 µM.
